Source: BigSolDB 2.1

NC(=O)c1ccccc1N
Conditions	solubility (mole fraction)
in THF, 273.15 K	0.226
in THF, 279.15 K	0.237
in THF, 283.65 K	0.245
in THF, 289.15 K	0.255
in THF, 293.45 K	0.263
in THF, 299.15 K	0.275
in THF, 303.35 K	0.284
in THF, 309.15 K	0.296
in THF, 313.75 K	0.31
in THF, 319.15 K	0.326
in THF, 323.65 K	0.339
in acetone, 273.15 K	0.164
in acetone, 279.15 K	0.181
in acetone, 284.15 K	0.193
in acetone, 289.15 K	0.208
in acetone, 293.35 K	0.223
in acetone, 298.95 K	0.243
in acetone, 303.35 K	0.265
in acetone, 308.65 K	0.292
in acetone, 313.15 K	0.313
in acetone, 317.15 K	0.341
in acetone, 324.15 K	0.386
in acetonitrile, 273.15 K	0.01
in acetonitrile, 279.15 K	0.0139
in acetonitrile, 283.65 K	0.0194
in acetonitrile, 289.15 K	0.0267
in acetonitrile, 293.45 K	0.0371
in acetonitrile, 299.15 K	0.0531
in acetonitrile, 303.35 K	0.066
in acetonitrile, 309.15 K	0.0871
in acetonitrile, 313.75 K	0.111
in acetonitrile, 319.15 K	0.151
in acetonitrile, 323.65 K	0.183
in ethanol, 273.15 K	0.0302
in ethanol, 279.15 K	0.0356
in ethanol, 284.15 K	0.04
in ethanol, 289.15 K	0.0477
in ethanol, 293.35 K	0.0554
in ethanol, 298.95 K	0.0648
in ethanol, 303.35 K	0.0742
in ethanol, 313.15 K	0.105
in ethanol, 317.15 K	0.117
in ethanol, 324.15 K	0.143
in ethyl acetate, 273.15 K	0.053
in ethyl acetate, 279.15 K	0.0608
in ethyl acetate, 283.65 K	0.0684
in ethyl acetate, 289.15 K	0.0778
in ethyl acetate, 293.45 K	0.0856
in ethyl acetate, 299.15 K	0.0977
in ethyl acetate, 303.35 K	0.108
in ethyl acetate, 309.15 K	0.123
in ethyl acetate, 313.75 K	0.134
in ethyl acetate, 319.15 K	0.154
in ethyl acetate, 323.65 K	0.169
in isobutanol, 273.15 K	0.0101
in isobutanol, 279.15 K	0.013
in isobutanol, 284.15 K	0.0153
in isobutanol, 289.15 K	0.0176
in isobutanol, 293.35 K	0.0211
in isobutanol, 298.95 K	0.0261
in isobutanol, 303.35 K	0.0301
in isobutanol, 308.65 K	0.0369
in isobutanol, 313.15 K	0.044
in isobutanol, 317.15 K	0.0504
in isobutanol, 324.15 K	0.0629
in isopentanol, 273.15 K	0.0117
in isopentanol, 279.15 K	0.014
in isopentanol, 283.65 K	0.0152
in isopentanol, 289.15 K	0.0181
in isopentanol, 293.25 K	0.0217
in isopentanol, 298.95 K	0.0273
in isopentanol, 303.25 K	0.0312
in isopentanol, 308.15 K	0.0391
in isopentanol, 313.15 K	0.0458
in isopentanol, 318.15 K	0.055
in isopentanol, 323.15 K	0.0647
in isopropanol, 273.15 K	0.0145
in isopropanol, 279.15 K	0.0182
in isopropanol, 284.15 K	0.0216
in isopropanol, 289.15 K	0.0253
in isopropanol, 293.35 K	0.0297
in isopropanol, 298.95 K	0.0355
in isopropanol, 303.35 K	0.042
in isopropanol, 308.65 K	0.0505
in isopropanol, 313.15 K	0.0593
in isopropanol, 317.15 K	0.0676
in isopropanol, 324.15 K	0.0844
in methanol, 273.15 K	0.05
in methanol, 279.15 K	0.0604
in methanol, 284.15 K	0.0684
in methanol, 289.15 K	0.0798
in methanol, 293.35 K	0.0905
in methanol, 298.95 K	0.106
in methanol, 303.35 K	0.123
in methanol, 308.65 K	0.148
in methanol, 313.15 K	0.17
in methanol, 317.15 K	0.19
in methanol, 324.15 K	0.229
in methyl acetate, 273.15 K	0.0644
in methyl acetate, 279.15 K	0.0723
in methyl acetate, 283.65 K	0.0797
in methyl acetate, 289.15 K	0.0892
in methyl acetate, 293.25 K	0.1
in methyl acetate, 298.95 K	0.114
in methyl acetate, 303.25 K	0.127
in methyl acetate, 308.15 K	0.144
in methyl acetate, 313.15 K	0.163
in methyl acetate, 318.15 K	0.186
in methyl acetate, 323.15 K	0.208
in n-butanol, 273.15 K	0.0162
in n-butanol, 279.15 K	0.0198
in n-butanol, 284.15 K	0.0232
in n-butanol, 289.15 K	0.0268
in n-butanol, 293.35 K	0.0312
in n-butanol, 298.95 K	0.0362
in n-butanol, 303.35 K	0.0423
in n-butanol, 308.65 K	0.0492
in n-butanol, 313.15 K	0.0579
in n-butanol, 317.15 K	0.065
in n-butanol, 324.15 K	0.0788
in n-hexanol, 273.15 K	0.0141
in n-hexanol, 279.15 K	0.0166
in n-hexanol, 283.65 K	0.0174
in n-hexanol, 289.15 K	0.0216
in n-hexanol, 293.25 K	0.0246
in n-hexanol, 298.95 K	0.0297
in n-hexanol, 303.25 K	0.034
in n-hexanol, 308.15 K	0.0407
in n-hexanol, 313.15 K	0.0468
in n-hexanol, 318.15 K	0.0557
in n-hexanol, 323.15 K	0.0641
in n-octanol, 273.15 K	0.0143
in n-octanol, 279.15 K	0.0159
in n-octanol, 283.65 K	0.0176
in n-octanol, 289.15 K	0.0206
in n-octanol, 293.25 K	0.0235
in n-octanol, 298.95 K	0.0275
in n-octanol, 303.25 K	0.0316
in n-octanol, 308.15 K	0.0377
in n-octanol, 313.15 K	0.0434
in n-octanol, 318.15 K	0.0505
in n-octanol, 323.15 K	0.0582
in n-pentanol, 273.15 K	0.0152
in n-pentanol, 279.15 K	0.0183
in n-pentanol, 284.15 K	0.0207
in n-pentanol, 289.15 K	0.0243
in n-pentanol, 293.35 K	0.0276
in n-pentanol, 298.95 K	0.0326
in n-pentanol, 303.35 K	0.0379
in n-pentanol, 308.65 K	0.044
in n-pentanol, 313.15 K	0.0514
in n-pentanol, 317.15 K	0.0579
in n-pentanol, 324.15 K	0.0703
in n-propanol, 273.15 K	0.0193
in n-propanol, 279.15 K	0.0232
in n-propanol, 284.15 K	0.027
in n-propanol, 289.15 K	0.0314
in n-propanol, 293.35 K	0.0363
in n-propanol, 303.35 K	0.0513
in n-propanol, 308.65 K	0.0626
in n-propanol, 313.15 K	0.0728
in n-propanol, 317.15 K	0.0842
in n-propanol, 324.15 K	0.105
